Results: patent US20110294741A1, “USE OF COMPOUNDS IN THE TREATMENT OF TAU-INDUCED CYTOTOXICITIES” (Bioalvo-Servicos, Investigacao e Desenvolvimento em …, priority 2008, published 2011)

Columns and labels:
[1] = test system: […] I cells, tunicamycin-induced ER stress; experiment: Yeast platform DISAGGREGATOR I, ER stress GFP reporter (chemically induced with tunicamycin); type: cell-based; conditions: 1 μg/ml tunicamycin
Method: Cells were grown as described for FIG. 7;
The yeast platform DISAGGREGATOR I comprises an ER stress element operably linked to a GFP reporter element and is used to determine the level of ER stress in cells during growth or triggered by specific ER stress inducers, e.g. tunicamycin. Tunicamycin is known to inhibit the glycosylation of nascent polypeptides, resulting in misfolded proteins, that are retained in the endoplasmic reticulum and therefore triggering ER stress.
Using these two platforms in parallel, it is possible to identify compounds that reduce specifically the stress induced by the TAU P301L protein, and other compounds that are simply general ER stress reducers.
DISAGGREGATOR I P301L cells were grown in 200 μl medium containing the KTP-NH2 at a concentration of 10 μM and 100 μM. DISAGGREGATOR I cells were grown in the same condition but subjected to an addition of 1 μg/mL of tunicamycin in order to induce ER stress chemically.

rats (Wister, male) [2] = experiment: In vivo toxicology: hepatotoxicity markers in the plasma; design: species or system rat; conditions: i.p. once a day 3.23 mg-100 g body mass, seven days
Method: (§1) The toxicological studies were carried out with rats (Wister, male) injected i.p. once a day with 3.23 mg-100 g body mass during seven days.
Liver is the major organ of toxicity. Blood samples were collected and the following hepatotoxicity markers were assayed in the plasma: • Alanine transaminase (ALT), • Aspartate transaminase (AST) • Alkaline phosphatase (ALP) • Total bilirubin (TBIL) • Gamma glutamyl transpeptidase (GGT)
Increased levels of the liver enzymes ALT, AST, ALP and GGT in the plasma indicate lesions in liver. Increased RBL would be a sign of faulty bilirubin production/hemolysis and/or bilirubin metabolism (in liver).

rats (Wister, male) [3] = experiment: In vivo toxicology: histological alterations in liver, kidney and spleen; design: species or system rat; conditions: i.p. once a day 3.23 mg-100 g body mass, seven days, hematoxylin/eosin sections
Method: as §1
For investigation of histological alterations in liver, kidney and spleen hematoxylin/eosin-stained sections of fixed tissue were used. Hematoxylin/eosin-stained sections were examined by an experienced pathologist.

rats (Wister, male) [4] = experiment: In vivo toxicology: antioxidant capacity in blood samples; design: species or system rat; conditions: i.p. once a day 3.23 mg-100 g body mass, seven days
Method: as §1
Metabolization of KTP-NH2 in the organism might lead to an increase in its metabolite products and to the subsequent production of reactive oxygen species (ROS). As increased ROS levels are potentially harmful.
KTP-NH2 potential to induce changes in antioxidant capacities in the plasma of animals was explored. Total antioxidant capacity of lipid-soluble (ACL) and water-soluble (ACW) constituents were determined.

rats (Wister, male) [5] = experiment: Tail-flick test; type: in vivo, rat
Method: (§2) Kyotorphin is an endogenous analgesic agent in the brain. However, Kyotorphin can not be used as an analgesic due to its inability to cross the blood-brain-barrier. […] In addition, KTP-NH2 efficacy after oral administration was also observed.
(§3) In vivo behavioural anti-nociception tests were carried out in rats (Wister, male). Unless otherwise stated, compounds were administered by intra-peritoneal (i.p.) injection. For most assays, the Tail Flick and the Hot Plate tests were used.
The tail-flick test (D'Amour F. E., Smith D. L. 1941. A method for determining the loss of pain sensation. J Pharmacol Exp Ther 1941; 72:74-79) is a standard investigative tool for pain and analgesia assessment in rodents. It is based on a spinal reflex response of the tail to radiant heat. Pain sensitivity in rats was measured as they responded to the application of radiant heat to a small area of their tails. […]
(§4) A KTP derivative was used for comparative purposes, as control. Both drugs were injected i.p. and p.o. and rats were analysed for the Hot Plate and Tail Flick tests.
Additionaly, the central action of KTP-NH2 was confirmed by experiments of naloxone-reversible analgesia. […] In order to corroborate the evidence that KTP-NH2 was exerting its analgesic effect via a central action, we analyzed the antinociceptive effect of KTP-NH2 after pretreatment with naloxone.

[6] = Plasma serum stability of KTP-NH2 analogues; type: in vitro ADME; conditions: Human Serum, test concentration 400 uM, 1-hour incubation
Method: In order to increase the potential of KTP-NH2 as a drug for systemic administration, derivatives with improved plasma stability were generated, and tested, including different isomers of KTP-NH2 and methylated versions of KTP-NH2 isomers: • L-Tyrosyl-D-Arginine-NH2 • D-Tyrosyl-D-Arginine-NH2 • D-Tyrosyl-L-Arginine-NH2 • Methyl-L-Tyrosyl-L-Arginine-NH2 • Methyl-L-Tyrosyl-D-Arginine-NH2
These analogues were tested for plasma serum stability, in comparison with KTP-NH2.

rats (Wister, male) [7] = experiment: Increasing-temperature hot-plate test; type: in vivo, rat; conditions: i.p. and p.o. administration
Method: as §2, §3
The hot-plate test (Eddy N. B and Leimbach D. 1953. Synthetic analgesics II. Dithienylbutenyl and dithienylbutylamines J. Pharmacol. Exp. Ther. 45: 339) evaluates a supraspinally integrated response in the form of thermal pain reflexes due to footpad contact with a heated surface. During the experiments, the animal is confined in a removable clear acrylic compartment where the latency time to the first hind paw or/and jumping responses are measured. […] The response is the licking of the hindpaw, and the corresponding plate temperature represents the recorded nociceptive end-point. […]
as §4

CYP3A4 = CYP3A4 (Homo sapiens, UniProt P08684); experiment: CYP inhibition; type: in vitro ADME; conditions: probe substrates midazolan and testosterone
Chain of CYP3A4 (P08684 whole entry): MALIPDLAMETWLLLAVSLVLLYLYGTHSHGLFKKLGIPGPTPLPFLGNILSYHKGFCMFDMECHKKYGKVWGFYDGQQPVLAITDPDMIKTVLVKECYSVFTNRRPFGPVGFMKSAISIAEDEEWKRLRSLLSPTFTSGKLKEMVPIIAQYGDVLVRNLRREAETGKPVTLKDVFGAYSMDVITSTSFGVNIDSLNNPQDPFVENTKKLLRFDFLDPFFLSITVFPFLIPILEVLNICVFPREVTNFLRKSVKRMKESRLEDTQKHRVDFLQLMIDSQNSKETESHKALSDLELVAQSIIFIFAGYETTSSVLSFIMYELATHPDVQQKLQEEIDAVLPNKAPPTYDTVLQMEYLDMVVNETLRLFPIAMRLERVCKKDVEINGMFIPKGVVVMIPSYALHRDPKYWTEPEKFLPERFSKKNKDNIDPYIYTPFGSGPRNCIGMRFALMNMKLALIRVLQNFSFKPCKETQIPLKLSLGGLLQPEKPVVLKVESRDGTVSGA
From the text: CYP3A4 is one of the most important enzymes involved in the metabolism of xenobiotics in the body, promoting the oxidation of the largest range of substrates of all the CYPs and is present in the largest quantity of all the CYPs in the liver.

Structure (SMILES): N=C(N)NCCCC(NC(=O)C(N)Cc1ccc(O)cc1)C(N)=O [KTP-NH2, L-Tyr-L-Arg-NH2]
- action on ER stress chemically induced with tunicamycin ([1]; 10 and 100 μM, first assay (FIG. 10)): almost no action
- decrease of stress chemically induced with tunicamycin ([1]; second assay (FIG. 12)): did not significantly decrease
- residual ER stress signal, of the maximum level without compound ([1]; 100 μM, average of two experiments (FIG. 13)): 80%
- GGT in plasma (rats (Wister, male) [2]): below the detection limit
- hepatotoxicity markers in plasma (AST, ALT, ALP, total bilirubin) versus control animals (rats (Wister, male) [2]): no toxic effects were detected
- histological alterations in kidney and spleen (rats (Wister, male) [3]): no histological modifications were found
- histological alterations in liver (rats (Wister, male) [3]): no signs of hepatic necrosis
- basal antioxidant capacity in plasma (water-soluble ACW and lipid-soluble ACL constituents) (rats (Wister, male) [4]): does not induce significant modifications
- effect of naloxone pretreatment on analgesia (rats (Wister, male) [5]; naloxone 10 min before KTP-NH2, KTP-NH2 3 mg/100 g, naloxone 0.5 mg/100 g, tail-flick): completely antagonized the analgesia
- anti-nociceptive response, time to remove tail after stimulus (Tail Flick) (rats (Wister, male) [5]; rats, i.p. and p.o. administration): clear anti-nociceptive response
- Mean Parent Remaining (%) [6]: 14.00%
- anti-nociceptive response, temperature increase tolerated in the paw (Hot Plate) (rats (Wister, male) [7]): clear anti-nociceptive response
- CYP3A4 inhibition (CYP3A4): not to inhibit
